According to patent US6495588B2, “Scytonemin and methods of using thereof” (The Regents of the University of California, priority 2000, dated 2002):

Experiments:
[1] = system: PMA-induced cell proliferation in mouse ear epidermis; assay: Mouse ear cell proliferation assay (IUdR incorporation, PCNA histology); assay type: in vivo; conditions: +PMA 4 μg/ear; scytonemin 1 mg/ear, dexamethasone 0.15 mg/ear
Method: To determine the efficacy of scytonemin as an anti-proliferative agent in vivo, the following assay was conducted. On day one, test compounds were delivered in 10 μl 20% DMSO, 80% acetone and applied to both the inner and outer pinnae of left ears (20 μl total) of male, Swiss Webster mice (Taconic Farms, Germantown, N.Y.). The right ears received only vehicle. One hour post test compound application, 4 μg/ear PMA (Sigma, St. Louis, Mo.) in 10 μl acetone was applied to the inner pinnae of each left ear and 10 μl acetone was applied to each right ear. Four hours post test compound application, the each test compound was again applied in the same manner. On day two, the test compounds were applied twice with a four-hour interval between each application. On day three, the test compounds and PMA were applied as they had been on day one.
One hour after the final test compound applications, each mouse was injected with 0.6 ml of a solution containing the thymidine analogue, 5-iodo-I^125-2′-deoxyuridine (IUdR) (2 μCi-I^125/mouse) and, to inhibit the endogenous deoxythymidilic acid synthetase, fluorodeoxyuridine (FUdR) ([…]). This IUdR/FUdR solution was made up in RPMI 1640 media. Eighteen hours post injection, the mice were euthanized via CO2 inhalation, the ears were excised and soaked individually in a 70% EtOH solution overnight.
IUdR incorporation was then measured using a Beckman Gamma counter, Model 5500B. […] Therefore, scytoneman compounds may be used to reduce, prevent, inhibit, modulate, or attenuate cell proliferation.
Additionally, immunostaining with Proliferating Cell Nuclear Antigen (PCNA) was used as a proliferation marker to identify proliferating cells. PCNA is a cofactor for DNAt […]. Expression levels of PCNA fluctuate over the cell cycle. […] Low expression levels of PCNA indicate non-cycling cells.
Histological analysis was used to determine the effect of scytonemin on the thickness of the epidermal layer of skin, the mitotic index of cells in the epidermal layer, the number of cells in the epidermis, and the amount of immune cell infiltration. PCNA antibodies were used to detect the presence of PCNA in cells and a peroxidase-Ni/DAB development system was used to stain PCNA-positive cells black and hematoxlin was used as a nuclear blue counterstain using conventional methods.

Jurkat T cells = assay: Apoptosis assay (TUNEL, flow cytometry); assay type: cell-based; conditions: 3 μM, 24 hours
Method: To determine the mechanism behind the ability of SCY to inhibit cell proliferation, about 2×10^5 Jurkat T cells/ml were treated with vehicle (negative control), 3 μM SCY, or 3 μM camptothecin (positive control) a (0.1% DMSO[final]) and incubated at 37° C., 5% CO2 for 24 hours. As a positive control, camptothecin, a DNA topoisomerase inhibitor, was used because of its ability to arrest Jurkat cells at the G2/M phase of the cell cycle and induce the cells to undergo apoptosis. The cells were fixed in 1% paraformaldehyde, washed once with PBS, and stored in 70% EtOH at−20° C. Apoptosis was measured using the Promega Apoptosis Detection System (Promega, Madison, Wis.) an adapted TUNEL staining method.
The cells were washed two times with 5 ml PBS 2% FBS, then transferred to a microcentrifuge tube in 1 ml PBS, 0.2% Triton×100, 5 mg/ml BSA and incubated on ice for 5 minutes. Samples were spun, PBS solution removed, then resuspended in 80 μl equilibration buffer from Promega kit and incubated at room temperature for 10 minutes. Then the samples were spun and the equilibration buffer removed. A nucleotide mix comprising 45 μl equilibration buffer, 5 μl nucleotide mix, 1 μl Tdt enzyme per sample, was used to resuspend each sample in the dark. The cells were incubated in the dark at 37° C. for 1 hour. The reaction was terminated by the addition of 20 mM EDTA. The samples were washed twice with 1 ml RNAse A and a small aliquot, about 50 μl, was viewed under a microscope. Cells were stained with fluoroscein and then counterstained with propidium iodide and analyzed for DNA content and fragmentation using a Becton-Dickinson FacsSort (Becton-Dickinson, San Jose, Calif.).

Row | SMILES | cells actively proliferating (PCNA staining) [1] | cells induced to undergo apoptosis (Jurkat T cells) [%] | effect on cell cycle progression (Jurkat T cells)
1 | C[C@@H]1C[C@H]2[C@@H]3CCC4=CC(=O)C=C[C@]4(C)[C@@]3(F)[C@@H](O)C[C@]2(C)[C@@]1(O)C(=O)CO [dexamethasone, reference compound] | about 60% |  | 
2 | CC[C@@]1(O)C(=O)OCc2c1cc1n(c2=O)Cc2cc3ccccc3nc2-1 [camptothecin, reference compound] |  | 71 | arrested the cells at G2/M phase
